Assay results from the supplement of paper PMC10307832.

Tests used:
Experiment in all cases: relative viability (nuclei count vs DMSO), 5 days (fraction); higher = more cells survive
Vorinostat + Bortezomib = compound: O=C(CCCCCCC(=O)Nc1ccccc1)NO [Vorinostat] + CC(C)C[C@H](NC(=O)[C@H](Cc1ccccc1)NC(=O)c1cnccn1)B(O)O [Bortezomib] (partner 0.002 µM)
Summary of the method: (§1)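 Lung cancer cell lines were seeded in 1536-well plates and dosed by pin tool the next day, with either a single drug or a fixed anchor-drug dose combined with five library-drug doses (not always all listed) spaced in √10 steps. Five days later, one step fixed the cells and stained their nuclei (final 0.05% Triton X-100, 1% formaldehyde, 1 ug/ml Hoechst), and nuclei were counted on 4× images. Relative viability is the nuclei count in treated wells divided by the count in vehicle wells, and each value is the median of duplicate plates.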

Vorinostat + Decitabine = compound: O=C(CCCCCCC(=O)Nc1ccccc1)NO [Vorinostat] + Nc1ncn([C@H]2C[C@H](O)[C@@H](CO)O2)c(=O)n1 [Decitabine] (partner 2 µM)
Summary of the method: as §1

Vorinostat + Pemetrexed = compound: O=C(CCCCCCC(=O)Nc1ccccc1)NO [Vorinostat] + Nc1nc2[nH]cc(CCc3ccc(C(=O)N[C@@H](CCC(=O)O)C(=O)O)cc3)c2c(=O)[nH]1 [Pemetrexed] (partner 0.2 µM)
Summary of the method: as §1

Vorinostat + Pictilisib = compound: O=C(CCCCCCC(=O)Nc1ccccc1)NO [Vorinostat] + CS(=O)(=O)N1CCN(Cc2cc3nc(-c4cccc5[nH]ncc45)nc(N4CCOCC4)c3s2)CC1 [Pictilisib] (partner 1 µM)
Summary of the method: as §1

Vorinostat + Palbociclib = compound: O=C(CCCCCCC(=O)Nc1ccccc1)NO [Vorinostat] + CC(=O)c1c(C)c2cnc(Nc3ccc(N4CCNCC4)cn3)nc2n(C2CCCC2)c1=O [Palbociclib] (partner 0.5 µM)
Summary of the method: as §1

Cell Line: LXF-289
- relative viability (Vorinostat + Bortezomib; first compound 0.253 µM): 1.08
- relative viability (Vorinostat + Bortezomib; first compound 0.8 µM): 0.923
- relative viability (Vorinostat + Bortezomib; first compound 2.53 µM): 0.348
- relative viability (Vorinostat + Bortezomib; first compound 8 µM): 0.057
- relative viability (Vorinostat + Decitabine; first compound 0.253 µM): 0.328
- relative viability (Vorinostat + Decitabine; first compound 0.8 µM): 0.37
- relative viability (Vorinostat + Decitabine; first compound 2.53 µM): 0.229
- relative viability (Vorinostat + Decitabine; first compound 8 µM): 0.0489
- relative viability (Vorinostat + Pemetrexed; first compound 0.253 µM): 0.905
- relative viability (Vorinostat + Pemetrexed; first compound 0.8 µM): 0.794
- relative viability (Vorinostat + Pemetrexed; first compound 2.53 µM): 0.554
- relative viability (Vorinostat + Pemetrexed; first compound 8 µM): 0.0613
- relative viability (Vorinostat + Pictilisib; first compound 0.253 µM): 0.913
- relative viability (Vorinostat + Pictilisib; first compound 0.8 µM): 0.704
- relative viability (Vorinostat + Pictilisib; first compound 2.53 µM): 0.272
- relative viability (Vorinostat + Pictilisib; first compound 8 µM): 0.088
- relative viability (Vorinostat + Palbociclib; first compound 0.253 µM): 0.65
- relative viability (Vorinostat + Palbociclib; first compound 0.8 µM): 0.599
- relative viability (Vorinostat + Palbociclib; first compound 2.53 µM): 0.476
- relative viability (Vorinostat + Palbociclib; first compound 8 µM): 0.0862

Cell Line: NCI-H838
- relative viability (Vorinostat + Bortezomib; first compound 0.253 µM): 1.22
- relative viability (Vorinostat + Bortezomib; first compound 0.8 µM): 0.864
- relative viability (Vorinostat + Bortezomib; first compound 2.53 µM): 0.275
- relative viability (Vorinostat + Bortezomib; first compound 8 µM): 0.134
- relative viability (Vorinostat + Decitabine; first compound 0.253 µM): 0.542
- relative viability (Vorinostat + Decitabine; first compound 0.8 µM): 0.597
- relative viability (Vorinostat + Decitabine; first compound 2.53 µM): 0.325
- relative viability (Vorinostat + Decitabine; first compound 8 µM): 0.198
- relative viability (Vorinostat + Pemetrexed; first compound 0.253 µM): 0.258
- relative viability (Vorinostat + Pemetrexed; first compound 0.8 µM): 0.269
- relative viability (Vorinostat + Pemetrexed; first compound 2.53 µM): 0.19
- relative viability (Vorinostat + Pemetrexed; first compound 8 µM): 0.167
- relative viability (Vorinostat + Pictilisib; first compound 0.253 µM): 0.798
- relative viability (Vorinostat + Pictilisib; first compound 0.8 µM): 0.675
- relative viability (Vorinostat + Pictilisib; first compound 2.53 µM): 0.349
- relative viability (Vorinostat + Pictilisib; first compound 8 µM): 0.142
- relative viability (Vorinostat + Palbociclib; first compound 0.253 µM): 0.262
- relative viability (Vorinostat + Palbociclib; first compound 0.8 µM): 0.218
- relative viability (Vorinostat + Palbociclib; first compound 2.53 µM): 0.183
- relative viability (Vorinostat + Palbociclib; first compound 8 µM): 0.116

Cell Line: NCI-H1666
- relative viability (Vorinostat + Bortezomib; first compound 0.253 µM): 0.798
- relative viability (Vorinostat + Bortezomib; first compound 0.8 µM): 0.461
- relative viability (Vorinostat + Bortezomib; first compound 2.53 µM): 0.251
- relative viability (Vorinostat + Bortezomib; first compound 8 µM): 0.189
- relative viability (Vorinostat + Decitabine; first compound 0.253 µM): 0.703
- relative viability (Vorinostat + Decitabine; first compound 0.8 µM): 0.654
- relative viability (Vorinostat + Decitabine; first compound 2.53 µM): 0.548
- relative viability (Vorinostat + Decitabine; first compound 8 µM): 0.329
- relative viability (Vorinostat + Pemetrexed; first compound 0.253 µM): 0.849
- relative viability (Vorinostat + Pemetrexed; first compound 0.8 µM): 0.887
- relative viability (Vorinostat + Pemetrexed; first compound 2.53 µM): 0.651
- relative viability (Vorinostat + Pemetrexed; first compound 8 µM): 0.434
- relative viability (Vorinostat + Pictilisib; first compound 0.253 µM): 0.363
- relative viability (Vorinostat + Pictilisib; first compound 0.8 µM): 0.283
- relative viability (Vorinostat + Pictilisib; first compound 2.53 µM): 0.206
- relative viability (Vorinostat + Pictilisib; first compound 8 µM): 0.128
- relative viability (Vorinostat + Palbociclib; first compound 0.253 µM): 0.634
- relative viability (Vorinostat + Palbociclib; first compound 0.8 µM): 0.576
- relative viability (Vorinostat + Palbociclib; first compound 2.53 µM): 0.523
- relative viability (Vorinostat + Palbociclib; first compound 8 µM): 0.511

Cell Line: LC-2-ad
- relative viability (Vorinostat + Bortezomib; first compound 0.253 µM): 1.01
- relative viability (Vorinostat + Bortezomib; first compound 0.8 µM): 0.579
- relative viability (Vorinostat + Bortezomib; first compound 2.53 µM): 0.146
- relative viability (Vorinostat + Bortezomib; first compound 8 µM): 0.0588
- relative viability (Vorinostat + Decitabine; first compound 0.253 µM): 0.839
- relative viability (Vorinostat + Decitabine; first compound 0.8 µM): 0.69
- relative viability (Vorinostat + Decitabine; first compound 2.53 µM): 0.469
- relative viability (Vorinostat + Decitabine; first compound 8 µM): 0.227
- relative viability (Vorinostat + Pemetrexed; first compound 0.253 µM): 0.273
- relative viability (Vorinostat + Pemetrexed; first compound 0.8 µM): 0.268
- relative viability (Vorinostat + Pemetrexed; first compound 2.53 µM): 0.263
- relative viability (Vorinostat + Pemetrexed; first compound 8 µM): 0.19
- relative viability (Vorinostat + Pictilisib; first compound 0.253 µM): 0.568
- relative viability (Vorinostat + Pictilisib; first compound 0.8 µM): 0.292
- relative viability (Vorinostat + Pictilisib; first compound 2.53 µM): 0.0981
- relative viability (Vorinostat + Pictilisib; first compound 8 µM): 0.0042
- relative viability (Vorinostat + Palbociclib; first compound 0.253 µM): 0.566
- relative viability (Vorinostat + Palbociclib; first compound 0.8 µM): 0.455
- relative viability (Vorinostat + Palbociclib; first compound 2.53 µM): 0.331
- relative viability (Vorinostat + Palbociclib; first compound 8 µM): 0.186

Cell Line: LOU-NH91
- relative viability (Vorinostat + Bortezomib; first compound 0.253 µM): 0.514
- relative viability (Vorinostat + Bortezomib; first compound 0.8 µM): 0.475
- relative viability (Vorinostat + Bortezomib; first compound 2.53 µM): 0.438
- relative viability (Vorinostat + Bortezomib; first compound 8 µM): 0.354
- relative viability (Vorinostat + Decitabine; first compound 0.253 µM): 0.845
- relative viability (Vorinostat + Decitabine; first compound 0.8 µM): 0.854
- relative viability (Vorinostat + Decitabine; first compound 2.53 µM): 0.702
- relative viability (Vorinostat + Decitabine; first compound 8 µM): 0.45
- relative viability (Vorinostat + Pemetrexed; first compound 0.253 µM): 0.362
- relative viability (Vorinostat + Pemetrexed; first compound 0.8 µM): 0.324
- relative viability (Vorinostat + Pemetrexed; first compound 2.53 µM): 0.387
- relative viability (Vorinostat + Pemetrexed; first compound 8 µM): 0.351
- relative viability (Vorinostat + Pictilisib; first compound 0.253 µM): 0.556
- relative viability (Vorinostat + Pictilisib; first compound 0.8 µM): 0.472
- relative viability (Vorinostat + Pictilisib; first compound 2.53 µM): 0.417
- relative viability (Vorinostat + Pictilisib; first compound 8 µM): 0.32
- relative viability (Vorinostat + Palbociclib; first compound 0.253 µM): 0.533
- relative viability (Vorinostat + Palbociclib; first compound 0.8 µM): 0.515
- relative viability (Vorinostat + Palbociclib; first compound 2.53 µM): 0.512
- relative viability (Vorinostat + Palbociclib; first compound 8 µM): 0.384

Cell Line: NCI-H1792
- relative viability (Vorinostat + Bortezomib; first compound 0.253 µM): 1.01
- relative viability (Vorinostat + Bortezomib; first compound 0.8 µM): 0.902
- relative viability (Vorinostat + Bortezomib; first compound 2.53 µM): 0.637
- relative viability (Vorinostat + Bortezomib; first compound 8 µM): 0.0799
- relative viability (Vorinostat + Decitabine; first compound 0.253 µM): 0.414
- relative viability (Vorinostat + Decitabine; first compound 0.8 µM): 0.413
- relative viability (Vorinostat + Decitabine; first compound 2.53 µM): 0.163
- relative viability (Vorinostat + Decitabine; first compound 8 µM): 0.0341
- relative viability (Vorinostat + Pemetrexed; first compound 0.253 µM): 0.795
- relative viability (Vorinostat + Pemetrexed; first compound 0.8 µM): 0.524
- relative viability (Vorinostat + Pemetrexed; first compound 2.53 µM): 0.163
- relative viability (Vorinostat + Pemetrexed; first compound 8 µM): 0.0208
- relative viability (Vorinostat + Pictilisib; first compound 0.253 µM): 0.283
- relative viability (Vorinostat + Pictilisib; first compound 0.8 µM): 0.179
- relative viability (Vorinostat + Pictilisib; first compound 2.53 µM): 0.0803
- relative viability (Vorinostat + Pictilisib; first compound 8 µM): 0.0579
- relative viability (Vorinostat + Palbociclib; first compound 0.253 µM): 0.725
- relative viability (Vorinostat + Palbociclib; first compound 0.8 µM): 0.57
- relative viability (Vorinostat + Palbociclib; first compound 2.53 µM): 0.485
- relative viability (Vorinostat + Palbociclib; first compound 8 µM): 0.175

Cell Line: EPLC-272H
- relative viability (Vorinostat + Bortezomib; first compound 0.253 µM): 0.742
- relative viability (Vorinostat + Bortezomib; first compound 0.8 µM): 0.744
- relative viability (Vorinostat + Bortezomib; first compound 2.53 µM): 0.275
- relative viability (Vorinostat + Bortezomib; first compound 8 µM): 0.12
- relative viability (Vorinostat + Decitabine; first compound 0.253 µM): 0.309
- relative viability (Vorinostat + Decitabine; first compound 0.8 µM): 0.338
- relative viability (Vorinostat + Decitabine; first compound 2.53 µM): 0.189
- relative viability (Vorinostat + Decitabine; first compound 8 µM): 0.152
- relative viability (Vorinostat + Pemetrexed; first compound 0.253 µM): 0.367
- relative viability (Vorinostat + Pemetrexed; first compound 0.8 µM): 0.381
- relative viability (Vorinostat + Pemetrexed; first compound 2.53 µM): 0.212
- relative viability (Vorinostat + Pemetrexed; first compound 8 µM): 0.159
- relative viability (Vorinostat + Pictilisib; first compound 0.253 µM): 0.309
- relative viability (Vorinostat + Pictilisib; first compound 0.8 µM): 0.227
- relative viability (Vorinostat + Pictilisib; first compound 2.53 µM): 0.212
- relative viability (Vorinostat + Pictilisib; first compound 8 µM): 0.145
- relative viability (Vorinostat + Palbociclib; first compound 0.253 µM): 0.289
- relative viability (Vorinostat + Palbociclib; first compound 0.8 µM): 0.294
- relative viability (Vorinostat + Palbociclib; first compound 2.53 µM): 0.217
- relative viability (Vorinostat + Palbociclib; first compound 8 µM): 0.171

Cell Line: HCC-366
- relative viability (Vorinostat + Bortezomib; first compound 0.253 µM): 1.09
- relative viability (Vorinostat + Bortezomib; first compound 0.8 µM): 0.872
- relative viability (Vorinostat + Bortezomib; first compound 2.53 µM): 0.0664
- relative viability (Vorinostat + Bortezomib; first compound 8 µM): 0.0198
- relative viability (Vorinostat + Decitabine; first compound 0.253 µM): 0.383
- relative viability (Vorinostat + Decitabine; first compound 0.8 µM): 0.244
- relative viability (Vorinostat + Decitabine; first compound 2.53 µM): 0.0518
- relative viability (Vorinostat + Decitabine; first compound 8 µM): 0.0306
- relative viability (Vorinostat + Pemetrexed; first compound 0.253 µM): 0.169
- relative viability (Vorinostat + Pemetrexed; first compound 0.8 µM): 0.174
- relative viability (Vorinostat + Pemetrexed; first compound 2.53 µM): 0.0867
- relative viability (Vorinostat + Pemetrexed; first compound 8 µM): 0.0396
- relative viability (Vorinostat + Pictilisib; first compound 0.253 µM): 0.132
- relative viability (Vorinostat + Pictilisib; first compound 0.8 µM): 0.191
- relative viability (Vorinostat + Pictilisib; first compound 2.53 µM): 0.0894
- relative viability (Vorinostat + Pictilisib; first compound 8 µM): 0.037
- relative viability (Vorinostat + Palbociclib; first compound 0.253 µM): 0.345
- relative viability (Vorinostat + Palbociclib; first compound 0.8 µM): 0.182
- relative viability (Vorinostat + Palbociclib; first compound 2.53 µM): 0.0412
- relative viability (Vorinostat + Palbociclib; first compound 8 µM): 0.0283
